Patent US9757408B2 (Hayashibara Co., Ltd., priority 2010, dated 2017)
Marks after values point to notes of the source that are not given here.

Tests used:
[1] = tested on: NHEK cells; assay: Cytotoxicity (released LDH) of NHEK cells irradiated with ultraviolet B (Experiment 17); assay type: cell-based, human; settings: for LDH Activity: NHEK cells, stimulation by ultraviolet rays
[2] = tested on: mice with colitis induced by dextran sulfate sodium; assay: Dextran sulfate sodium colitis mice: diarrhea/hematochezia scores, DAI, haptoglobin (Experiment 13); assay type: in vivo, C57BL/6 mice; settings: dextran sulfate sodium intake; for Content of haptoglobin: blood on 11th day
Experimental: Dextran sulfate sodium (commercialized by MP Biomedicals, CA, USA, molecular weight of 36,000 to 50,000) was dissolved in tap water, and all the mice of these five groups consisting of eight heads each were allowed to freely take the solution for five days (Experiment groups 2 to 5). […] The eight mice of the remaining one group were administered through a gastric tube with PBS once a day at a dose of 0.2 mL/head over 11 days from the day of initiating the administration of dextran sulfate sodium (Experiment group 2). The five mice of one group, which had not been administered with dextran sulfate sodium, were bred for 11 days on the normal feed while allowing them to take tap water freely (Experiment group 1).
The mice were weighed and their degree of diarrhea and hematochezia were macroscopically observed every day over 11 days from the day of initiating the intake of dextran sulfate sodium. The body weight reduction percentage (%) was determined by dividing the body weight of a mouse at 11th day after initiating the intake of dextran sulfate sodium by the body weight of the mouse at the day of initiating the intake, and multiplying the value by 100, and subtracting the resulting value from 100. The scores of diarrhea and hematochezia and the body weight reduction percentage (%) in each mouse were scored according to the criteria as shown in Table 13. For each group, the average of the total scores of diarrhea and hematochezia on days ranging from the day (intake day 0) of initiating the intake of dextran sulfate sodium to 11th day therefrom (intake day 10) are determined and shown in Table 14. The total scores of diarrhea, hematochezia, and body weight reduction percentage for each mouse at 11th day (intake day 10) after initiating the intake of dextran sulfate sodium are calculated for disease activity index (DAI) used as an index for colitis, averaged for each group, and shown in Table 14. On 11th day after initiating the intake of dextran sulfate sodium, each mouse was collected blood, followed by assaying haptoglobin or an acute phase protein, as an index for inflammatory, on an ELISA kit commercialized by Life Diagnostics USA, and averaging the data for each group. The results are in Table 14 in parallel. Since one mouse in Experiment group 2 administered with only dextran sulfate sodium was dead at 11th day after initiating the intake of dextran sulfate sodium, the results of Experiment group 2 at 11th day (intake day 10) after initiating the intake of dextran sulfate sodium represent the average of seven mice.

[3] = tested on: IL-12 production from mouse intraperitoneal macrophages; assay: IC50 for IL-12 production from mouse macrophages, LPS + IFN-γ (Experiment 19); assay type: cell-based; settings: for IC50: Mus musculus, Macrophage, 20 h, read-out: IC50 Concentration IL-12
Description: After completion of the culture, the supernatant in each well was collected and assayed for cytokines and prostaglandin E2 (called “PGE2”, hereinafter) with ELISA.

[4] = tested on: mice with concanavalin A (Con A) induced liver disorder; assay: Concanavalin A induced liver disorder mice: GPT, GOT, liver necrosis score (Experiment 12); assay type: in vivo, BALB/c mice; design: Liver function GPT / Liver function GOT: unit not given here; settings: Con A 15 mg/kg i.v.; for Liver function GOT / Liver function GPT: serum 20 hours after Con A; for Conditions of liver tissue, Necrosis (average score): grades mild (1), moderate (2), severe (3)
Experimental: “TYPE IV”, a Con A specimen commercialized by Sigma-Aldrich Corporation, St. Louis, Mo. USA, was dissolved in physiological saline and intravenously administered to all the five mice in each six groups at a dose of 15 mg/0.2 mL. […] The five mice in the remaining one group as a control were intravenously administered with 0.2 mL/head of physiological saline, simultaneously with Con A (Experiment group 1).
For the mice in each group, they were collected blood at 20 hours after administering Con A, followed by assaying the activity of GPT and GOT in their sera with “TRANSAMINASE CII-TEST WAKO”, a commercialized assay kit produced by Wako Pure Chemical Industries Ltd., Tokyo, Japan, for use as an index for liver disorder due to hepatitis. […] The tissue specimens were stained with hematoxylin-eosin staining, followed by calculating an average of scores for judgement on the conditions of necrosis of liver tissues by microscopic observation, for use as an index for liver disorder. The results are in Table 12 in parallel. The conditions of necrosis of liver tissues were evaluated based on a microscopic observation standard of three grades of “mild (1)”, “moderate (2)”, and “severe (3)” and scored before determining the average for each group.

[5] = tested on: IL-4 production of spleen cells; assay: IL-4 production of spleen cells stimulated with anti-CD3 antibody, from gel-treated mice (Experiment 16); assay type: in vivo, NC/Nga mice; settings: for production level of IL-4 of spleen cells stimulated with the anti-CD3 antibody: compared to mice applied with gel prepared by adding refined water (Experiment group 1); for Content of IL-4: supernatant of spleen cells stimulated with anti-CD3 antibody; for Content of IL-4 / Ratio of IL-4/IFN-γ: picryl chloride-sensitized mice applied with gel; for Ratio of IL-4/IFN-γ: spleen cells stimulated with anti-CD3 antibody
Experimental: On Friday of the 6th week of the induction (46th day after initiating the application), all the mice were sacrificed, followed by isolating their spleens and collecting spleen cells in usual manner. […] To each well 2 μg/mL of “Purified Mouse CD3ε Monoclonal Antibody”, a product name of an anti-CD3 antibody, commercialized by Cosmo Bio Co., Ltd., Tokyo, Japan, was added, and the cells were incubated at 37° C. for three days in a 5% v/v CO2 incubator, followed by assaying the levels of cytokines in each supernatant thereof.
The results are in Table 19 in parallel.

[6] = 94 mg/kg orally once a day, day 0

SMILES: Nc1ncnc2c1ncn2[C@@H]1O[C@H](CO)[C@@H](O)[C@H]1O [AN, adenosine]
- LDH Activity ([1]; 1 μM): 0.35 absorbance
- LDH Activity ([1]; 5 μM): 0.36 absorbance
- LDH Activity ([1]; 10 μM): 0.35 absorbance
- Content of haptoglobin ([2]; 94 mg/kg orally once a day): 4.0 mg/mL
- Total scores of diarrhea and hematochezia, day 0 [2, 6]: 0
- Total scores of diarrhea and hematochezia, day 1 ([2]; 94 mg/kg orally once a day): 0
- Total scores of diarrhea and hematochezia, day 2 ([2]; 94 mg/kg orally once a day): 0
- Total scores of diarrhea and hematochezia, day 3 ([2]; 94 mg/kg orally once a day): 0.3
- Total scores of diarrhea and hematochezia, day 4 ([2]; 94 mg/kg orally once a day): 1.0
- Total scores of diarrhea and hematochezia, day 5 ([2]; 94 mg/kg orally once a day): 1.4
- Total scores of diarrhea and hematochezia, day 6 ([2]; 94 mg/kg orally once a day): 1.3
- Total scores of diarrhea and hematochezia, day 7 ([2]; 94 mg/kg orally once a day): 1.4
- Total scores of diarrhea and hematochezia, day 8 ([2]; 94 mg/kg orally once a day): 1.4
- Total scores of diarrhea and hematochezia, day 9 ([2]; 94 mg/kg orally once a day): 1.4
- DAI (total scores of diarrhea, hematochezia, and body weight reduction percentage), day 10 ([2]; 94 mg/kg orally once a day): 4.6
- Total scores of diarrhea and hematochezia, day 10 ([2]; 94 mg/kg orally once a day): 1.6
- IC50 [3]: 14 µM
- Liver function GOT ([4]; 127 mg/kg i.v. simultaneously): 4130*
- Liver function GPT ([4]; 127 mg/kg i.v. simultaneously): 1917
- Conditions of liver tissue, Necrosis (average score) ([4]; 127 mg/kg i.v.): 2.5
- production level of IL-4 of spleen cells stimulated with the anti-CD3 antibody [5]: showed no difference
- Content of IL-4 [5]: 9.8 ng/mL

SMILES: Nc1c2ncn([C@@H]3O[C@H](CO)[C@@H](O)[C@H]3O)c2nc[n+]1[O-] [ANO, adenosine N1-oxide]
- LDH Activity ([1]; 1 μM): 0.32 absorbance
- LDH Activity ([1]; 5 μM): 0.23 absorbance
- LDH Activity ([1]; 10 μM): 0.14 absorbance
- LDH released from NHEK cells by the stimulation of ultraviolet rays ([1]; UVB 40 mJ/cm^2, supernatant at four hours): inhibited LDH released
- Content of haptoglobin ([2]; 33 mg/kg orally once a day): 3.7 mg/mL
- Total scores of diarrhea and hematochezia, day 0 ([2]; 33 mg/kg orally once a day, day 0 after initiating the intake): 0
- Total scores of diarrhea and hematochezia, day 1 ([2]; 33 mg/kg orally once a day): 0
- Total scores of diarrhea and hematochezia, day 2 ([2]; 33 mg/kg orally once a day): 0
- Total scores of diarrhea and hematochezia, day 3 ([2]; 33 mg/kg orally once a day): 0
- Total scores of diarrhea and hematochezia, day 4 ([2]; 33 mg/kg orally once a day): 0.3
- Total scores of diarrhea and hematochezia, day 5 ([2]; 33 mg/kg orally once a day): 0.3
- Total scores of diarrhea and hematochezia, day 6 ([2]; 33 mg/kg orally once a day): 0.5
- Total scores of diarrhea and hematochezia, day 7 ([2]; 33 mg/kg orally once a day): 0.6
- Total scores of diarrhea and hematochezia, day 8 ([2]; 33 mg/kg orally once a day): 0.9
- Total scores of diarrhea and hematochezia, day 9 ([2]; 33 mg/kg orally once a day): 0.8
- DAI (total scores of diarrhea, hematochezia, and body weight reduction percentage), day 10 ([2]; 33 mg/kg orally once a day): 3.8*
- Total scores of diarrhea and hematochezia, day 10 ([2]; 33 mg/kg orally once a day): 0.7
- Content of haptoglobin ([2]; 100 mg/kg orally once a day): 2.9* mg/mL
- Total scores of diarrhea and hematochezia, day 0 ([2]; 100 mg/kg orally once a day, day 0): 0
- Total scores of diarrhea and hematochezia, day 1 ([2]; 100 mg/kg orally once a day): 0
- Total scores of diarrhea and hematochezia, day 2 ([2]; 100 mg/kg orally once a day): 0
- Total scores of diarrhea and hematochezia, day 3 ([2]; 100 mg/kg orally once a day): 0.3
- Total scores of diarrhea and hematochezia, day 4 ([2]; 100 mg/kg orally once a day): 0.4
- Total scores of diarrhea and hematochezia, day 5 ([2]; 100 mg/kg orally once a day): 0.4
- Total scores of diarrhea and hematochezia, day 6 ([2]; 100 mg/kg orally once a day): 0.5
- Total scores of diarrhea and hematochezia, day 7 ([2]; 100 mg/kg orally once a day): 0.6
- Total scores of diarrhea and hematochezia, day 8 ([2]; 100 mg/kg orally once a day): 0.6
- Total scores of diarrhea and hematochezia, day 9 ([2]; 100 mg/kg orally once a day): 0.7
- DAI (total scores of diarrhea, hematochezia, and body weight reduction percentage), day 10 ([2]; 100 mg/kg orally once a day): 3.4**
- Total scores of diarrhea and hematochezia, day 10 ([2]; 100 mg/kg orally once a day): 0.6
- IC50 [3]: 1.4 µM
- inhibitory action on the production of IL-12 (in words) ([3]; mouse intraperitoneal macrophages stimulated with LPS and IFN-γ): showed an inhibitory action
- Liver function GOT ([4]; 45 mg/kg i.v. simultaneously): 2941++
- Liver function GPT ([4]; 45 mg/kg i.v. simultaneously): 1477*
- Conditions of liver tissue, Necrosis (average score) ([4]; 45 mg/kg i.v.): 2.4
- Liver function GOT ([4]; 75 mg/kg i.v. simultaneously): 2654**
- Liver function GPT ([4]; 75 mg/kg i.v. simultaneously): 1229*
- Liver function GOT ([4]; 135 mg/kg i.v. simultaneously): 1343**
- Liver function GPT ([4]; 135 mg/kg i.v. simultaneously): 687**
- Conditions of liver tissue, Necrosis (average score) ([4]; 135 mg/kg i.v.): 2.0
- production level of IL-4 of spleen cells stimulated with the anti-CD3 antibody [5]: significantly lower
- production ratio of IL-4/IFN-γ of spleen cells stimulated with the anti-CD3 antibody ([5]; spleen cells of gel-treated mice): close to that of the mice of the normal group
- Ratio of IL-4/IFN-γ [5]: 0.32
- Content of IL-4 [5]: 2.8* ng/mL

SMILES: OC[C@H]1O[C@@H](n2cnc3c(O)ncnc32)[C@H](O)[C@@H]1O [IN, inosine]
- LDH Activity ([1]; 1 μM): 0.34 absorbance
- LDH Activity ([1]; 5 μM): 0.34 absorbance
- LDH Activity ([1]; 10 μM): 0.32 absorbance
- Content of haptoglobin ([2]; 94 mg/kg orally once a day): 3.9 mg/mL
- Total scores of diarrhea and hematochezia, day 0 [2, 6]: 0
- Total scores of diarrhea and hematochezia, day 1 ([2]; 94 mg/kg orally once a day): 0
- Total scores of diarrhea and hematochezia, day 2 ([2]; 94 mg/kg orally once a day): 0
- Total scores of diarrhea and hematochezia, day 3 ([2]; 94 mg/kg orally once a day): 0.1
- Total scores of diarrhea and hematochezia, day 4 ([2]; 94 mg/kg orally once a day): 0.8
- Total scores of diarrhea and hematochezia, day 5 ([2]; 94 mg/kg orally once a day): 1.1
- Total scores of diarrhea and hematochezia, day 6 ([2]; 94 mg/kg orally once a day): 1.2
- Total scores of diarrhea and hematochezia, day 7 ([2]; 94 mg/kg orally once a day): 1.1
- Total scores of diarrhea and hematochezia, day 8 ([2]; 94 mg/kg orally once a day): 1.2
- Total scores of diarrhea and hematochezia, day 9 ([2]; 94 mg/kg orally once a day): 1.2
- DAI (total scores of diarrhea, hematochezia, and body weight reduction percentage), day 10 ([2]; 94 mg/kg orally once a day): 4.1
- Total scores of diarrhea and hematochezia, day 10 ([2]; 94 mg/kg orally once a day): 1.3
- IC50 [3]: > 200 µM
- Liver function GOT ([4]; 127 mg/kg i.v. simultaneously): 5243
- Liver function GPT ([4]; 127 mg/kg i.v. simultaneously): 2061
- Conditions of liver tissue, Necrosis (average score) ([4]; 127 mg/kg i.v.): 2.6
- production level of IL-4 of spleen cells stimulated with the anti-CD3 antibody [5]: showed no difference
- Ratio of IL-4/IFN-γ [5]: 0.70
- Content of IL-4 [5]: 9.3 ng/mL
